Experimental data published in patent US20250242035A1, “GLYCAN CONJUGATE COMPOSITIONS AND METHODS” (GANNA BIO, INC., priority 2022, published 2025).

Experiments:
DC-SIGNR = target: T1, DC-SIGNR (Homo sapiens, UniProt Q9H2X3); experiment: In vitro glycan array protein binding, DC-SIGNR; settings: 20 μg/mL protein, glycan printed at 100 μM
T1 construct: purchased R&D Systems 162-D2
T1 sequence (Q9H2X3 1-399): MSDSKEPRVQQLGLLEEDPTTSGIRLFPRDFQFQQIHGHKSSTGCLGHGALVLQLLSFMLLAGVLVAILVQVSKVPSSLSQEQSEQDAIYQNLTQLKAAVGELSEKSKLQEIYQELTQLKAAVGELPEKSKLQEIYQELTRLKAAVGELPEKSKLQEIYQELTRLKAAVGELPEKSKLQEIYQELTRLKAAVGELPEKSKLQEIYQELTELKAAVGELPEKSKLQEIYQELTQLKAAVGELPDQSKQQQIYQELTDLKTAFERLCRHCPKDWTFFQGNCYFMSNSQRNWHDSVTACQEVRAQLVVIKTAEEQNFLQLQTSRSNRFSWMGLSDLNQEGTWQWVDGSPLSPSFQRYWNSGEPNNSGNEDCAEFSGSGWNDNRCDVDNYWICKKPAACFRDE
Description: […]. Commercially available proteins tagged with human fragment crystallizable region (Fc) were used for the glycan array screening: DC-SIGNR (R&D Systems, 162-D2), Siglec7 (R&D Systems, 1138-SL), CD2 (R&D Systems, 1856-CD-050), CD83 (R&D Systems, 2044-CD), KLRF1 (R&D Systems, 1099-NK), CD28 (Sino Biological Inc., 11524-H41H).
Protein samples were prepared with 1% bovine serum albumin (BSA) in tris-sucrose-magnesium chloride (TSM) buffer with additional Ca^2+ (20 mM tris-HCl, 150 mM sodium chloride, 5 mM calcium chloride, 2 mM magnesium chloride, and 0.05% Tween 20). Proteins were incubated with the glycan array for 1 hour at room temperature at the concentrations indicated in Tables 9A-9F before being washed three times with wash buffer (20 mM tris-HCl, 150 mM sodium chloride, 5 mM calcium chloride, 2 mM magnesium chloride). The arrays were then contacted with Alexa Fluor 488-labeled goat anti-human IgG (H+L) (Invitrogen A-11013) at 5 μg/ml and measured by fluorescence detection. Values in Tables 9A-9F are reported in relative fluorescence units (RFUs).

Siglec-7 = target: T2, Siglec-7 (Homo sapiens, UniProt Q9Y286); experiment: In vitro glycan array protein binding, Siglec-7; settings: 10 μg/mL protein, glycan printed at 100 μM
T2 construct: purchased R&D Systems 1138-SL
T2 sequence (Q9Y286 19-467): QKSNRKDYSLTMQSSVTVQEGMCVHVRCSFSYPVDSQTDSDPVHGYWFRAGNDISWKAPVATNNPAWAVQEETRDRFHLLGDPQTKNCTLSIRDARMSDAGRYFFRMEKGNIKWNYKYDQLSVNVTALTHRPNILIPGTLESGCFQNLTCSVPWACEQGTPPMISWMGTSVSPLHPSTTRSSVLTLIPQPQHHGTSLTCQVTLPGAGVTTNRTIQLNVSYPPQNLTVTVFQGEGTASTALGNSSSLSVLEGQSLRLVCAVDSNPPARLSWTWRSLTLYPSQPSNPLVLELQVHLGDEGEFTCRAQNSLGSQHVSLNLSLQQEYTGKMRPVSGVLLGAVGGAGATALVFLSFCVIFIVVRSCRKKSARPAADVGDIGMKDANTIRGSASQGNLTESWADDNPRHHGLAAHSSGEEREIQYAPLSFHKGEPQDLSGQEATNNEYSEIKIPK

FXII = experiment: Knockdown measured using plasma FXII ELISA; type: in vivo, mice; settings: 10-day post dose
Description: Glyco-siRNA conjugates were prepared as described in Examples 6 and 7, wherein the siRNA was an HPRT1-siRNA (SEQ ID NOS: 8 and 9).
Plasma from the 10-day post dose mice was collected using EDTA tube and saved at −80° C. before analysis. The plasma FXII levels were measured using Innov-Research FXII ELISA kit (Cat. No. IMSF12KT) following the provider's instructions.

Primary B cells = experiment: In vitro glyco-siRNA internalization by stem loop qPCR, primary B cells; type: cell-based
Description: (§1) Primary B cells, T cells and NK cells were purchased from […] Technologies Inc. Primary B, T and NK cells were plated 24 hours before the experiment at 100,000 cells per well in […] of Roswell Park Memorial Institute (RPMI) medium with 10% fetal bovine serum (FBS) in 96-well plates. Glyco-siRNAs were incubated with cells for 4 hours. After incubation, media was removed and washed three times in PBS or PBS+150 mM NaCl. […] A final concentration of 1 mM dNTP, 5 U/μl transcriptase, 0.38 U/μl Rnase inhibitor, 50 nM stem loop RT primer (IDT) against siRNA targeting beta catenin (5′-[…]-3′ (SEQ ID NO: 21)) was mixed in a 10 μl volume reaction with 1× buffer. Frozen cell lysates were thawed and heated at 95° C. for 10 minutes and 5 μl of the boiled cell lysate was added to each 10 μl of reverse transcription mix. Samples were incubated first in 16° C. for 30 minutes then 42° C. for 30 minutes followed by 85° C. for 5 minutes and the samples were ready to be used for qPCR reaction. […] 1.5 ul of cDNA template from the reverse transcription reaction is added to the qPCR mix to a final volume for 10 μl. Samples were first incubated at 95° C. for 10 minutes followed by 40 cycles of 30 seconds of 95° C. and 1 minute at 60° C. Relative enrichment of siRNA over endogenous Micro-RNAs were calculated based on the Ct value of standard curve.

Primary T cells = experiment: In vitro glyco-siRNA internalization by stem loop qPCR, primary T cells; type: cell-based
Description: as §1

[1] = system: Natural Killer (NK) cells; experiment: In vitro glyco-siRNA internalization by stem loop qPCR, NK cells; type: cell-based
Description: as §1

CC(=O)N[C@H]1[C@H](O[C@H]2[C@@H](O)[C@@H](CO)O[C@@H](O[C@H]3[C@H](O)[C@@H](O)C(O)O[C@@H]3CO)[C@@H]2O)O[C@H](CO)[C@@H](O[C@@H]2O[C@H](CO)[C@H](O)[C@H](O)[C@H]2O[C@@H]2O[C@@H](C)[C@@H](O)[C@@H](O)[C@@H]2O)[C@@H]1O (stereo partly shown) [K-30, Fuca1-2Galb1-4GlcNAcb1-3Galb1-4Glc]
Binding to DC-SIGNR (20 μg/ml)(RFU) (DC-SIGNR): 631597 RFU

CC(=O)N[C@H]1[C@H]([C@H](O)[C@H](O)CO)O[C@@](O[C@H](CO)[C@@H](O)[C@@H]2O[C@@](O[C@H]3[C@@H](O)[C@@H](CO)O[C@@H](O[C@H]4[C@H](O)[C@@H](O)C(O)O[C@@H]4CO)[C@@H]3O)(C(=O)O)C[C@H](O)[C@H]2NC(C)=O)(C(=O)O)C[C@@H]1O (stereo partly shown) [K-51, Neu5Ac(a2-8)Neu5Ac(a2-3)Gal(b1-4)Glc]
Binding to Siglec-7 (10 μg/ml)(RFU) (Siglec-7): 28368.5 RFU

CC(=O)N[C@H]1[C@H](O[C@H]2[C@@H](O)[C@@H](CO)O[C@@H](O[C@H]3[C@H](O)[C@@H](O)C(O)O[C@@H]3CO)[C@@H]2O)O[C@H](CO)[C@@H](O[C@@H]2O[C@H](CO)[C@H](O)[C@H](O[C@H]3O[C@H](CO)[C@H](O)[C@H](O)[C@H]3O)[C@H]2O)[C@@H]1O[C@@H]1O[C@@H](C)[C@@H](O)[C@@H](O)[C@@H]1O (stereo partly shown) [K-31, Gala1-3Galb1-4(Fuca1-3)GlcNAcb1-3Galb1-4Glc]
Binding to DC-SIGNR (20 μg/ml)(RFU) (DC-SIGNR): 543554.7 RFU

CC(=O)N[C@H]1[C@H](O[C@H]2[C@@H](O)[C@@H](CO)O[C@@H](O[C@H]3[C@H](O)[C@@H](O)C(O)O[C@@H]3CO)[C@@H]2O)O[C@H](CO)[C@@H](O)[C@@H]1O (stereo partly shown) [K-23, GlcNAcb1-3Galb1-4Glc]
Binding to DC-SIGNR (20 μg/ml)(RFU) (DC-SIGNR): 1047468 RFU

CC(=O)N[C@H]1[C@H](O[C@H]2[C@@H](O)[C@@H](CO)O[C@@H](O[C@H]3[C@H](O)[C@@H](O)C(O)O[C@@H]3CO)[C@@H]2O)O[C@H](CO)[C@@H](O[C@@H]2O[C@H](CO)[C@H](O)[C@H](O)[C@H]2O)[C@@H]1O[C@@H]1O[C@@H](C)[C@@H](O)[C@@H](O)[C@@H]1O (stereo partly shown) [K-29, Galb1-4(Fucα1-3)GlcNAcb1-3Galb1-4Glc]
Binding to DC-SIGNR (20 μg/ml)(RFU) (DC-SIGNR): 718967.2 RFU

[N-]=[N+]=NCCO[C@@H]1O[C@H](CO)[C@@H](O)[C@H](O)[C@H]1O [X-2, 2-Azidoethyl β-D-glucopyranoside, reference compound]
Knockdown Relative to PBS Control Measured Using FXII ELISA, % of PBS Control (FXII; 0.1 mg/kg): 83.00 % of PBS Control | Knockdown Relative to PBS Control Measured Using FXII ELISA, % of PBS Control (FXII; 1 mg/kg): 77.24 % of PBS Control | Primary B Cell Uptake (Fold Increase vs Naked siRNA) (Primary B cells; Donor 1, 4 hours incubation): 2.72 Fold | Primary B Cell Uptake (Fold Increase vs Naked siRNA) (Primary B cells; Donor 2, 4 hours incubation): 2.17 Fold | Primary T Cell Uptake (Fold Increase vs Naked siRNA) (Primary T cells; Donor 1, 4 hours incubation): 2.83 Fold | Primary T Cell Uptake (Fold Increase vs Naked siRNA) (Primary T cells; Donor 2, 4 hours incubation): 1.68 Fold | NK Cell Uptake (Fold Increase vs Naked siRNA) ([1]; Donor 1 repeat 1, NK cells incubated with glyco-siRNA for 4 hours): 2.16 fold | NK Cell Uptake (Fold Increase vs Naked siRNA) ([1]; Donor 2 repeat 2, NK cells incubated with glyco-siRNA for 4 hours): 2.60 fold

CC(=O)N[C@H]1[C@H](O[C@H]2[C@@H](O)[C@@H](CO)O[C@@H](O[C@H]3[C@H](O)[C@@H](O)C(O)O[C@@H]3CO)[C@@H]2O)O[C@H](CO)[C@@H](O[C@@H]2O[C@H](CO)[C@H](O)[C@@H](O[C@@H]3O[C@H](CO)[C@@H](O)[C@H](O)[C@H]3NC(C)=O)[C@H]2O)[C@@H]1O (stereo partly shown) [K-28, GlcNAcb1-3Galb1-4GlcNAcb1-3Galb1-4Glc]
Binding to DC-SIGNR (20 μg/ml)(RFU) (DC-SIGNR): 723698.8 RFU

CC(=O)NC1C(OCC2OC(OC3C(CO)OC(O)C(O)C3O)C(O)C(OC3OC(CO)C(O)C(O)C3NC(C)=O)C2O)OC(CO)C(O)C1O (stereo not shown) [K-27, GlcNAcb1-3(GlcNAcb1-6)Galb1-4Glc]
Binding to DC-SIGNR (20 μg/ml)(RFU) (DC-SIGNR): 862190.8 RFU

CC(=O)NC1C(OC2C(O)C(CO)OC(OC3C(CO)OC(O)C(O)C3O)C2O)OC(CO)C(OC2OC(CO)C(O)C(OC3OC(CO)C(OC4OC(CO)C(O)C(O)C4OC4OC(C)C(O)C(O)C4O)C(O)C3NC(C)=O)C2O)C1O (stereo not shown) [K-22, Fucα1-2Galb1-4GlcNAcb1-3Galb1-4GlcNAcb1-3Galb1-4Glc]
Binding to DC-SIGNR (20 μg/ml)(RFU) (DC-SIGNR): 1047827 RFU
